From patent publication US10336757B2, “Treatment of neurodegenerative diseases through inhibition of HSP90” (Sloan-Kettering Institute for Cancer Research, priority 2006, dated 2019)
Where “and” joins values, the source holds several entries; their conditions need not be identical. Equal entries are not always repeated.

Assays:
[1] = test system: mutant tau (HT7), p35, cdk5, Hsp70; test: One dose PU-DZ8 in JNPL3 mice, S1 and P3 brain fractions by Western blot; assay type: in vivo, mouse; details: for soluble mutant tau (HT7), S1 fraction, subcortical brain region: from 4 h, maintained up to 36 h
Protocol: JNPL3 female mice 6 months of age were treated IP with the Hsp90 inhibitor PU-DZ8 (75 mg/kg) and sacrificed various times as indicated in FIG. 9. Brains were divided in subcortical and cortical regions and processed using the Greenberg and Davies extraction protocol (77). Sarkosyl soluble fractions (S1) extracted from the subcortical region were analyzed by WB for p35, cdk5, mutant tau (HT7), Hsp90 and Hsp70. Protein bands were normalized to actin and plotted as relative change from untreated mice.
To investigate whether the human TauP301L present in the JNPL3 line of mice is a sensitive target for Hsp90 inhibition, animals were treated with the brain-barrier permeable Hsp90 inhibitor PU-DZ8. This agent is a higher-potency water soluble derivative of PU24FC1 (EC50JNPL3 brain Hsp90=70 nM). One dose of PU-DZ8 (75 mg/kg) was administered intraperitoneally (i.p.) to female mice of 2.5-4 months in age (n=32) and animals were sacrificed in the interval of 0 to 36 h. Both aggregate-free Tau (S1) and insoluble Tau (P3) fractions were prepared from the subcortical and cortical regions of these mice. Human Tau levels were assessed by immunobloting with a human specific anti-Tau antibody (HT-7). […] We next examined in a 4- to 6-month old mouse group (n=15) whether the stability of mTau as present in tau aggregates (P3 fraction) was additionally regulated by Hsp90.
For experiments designed to test the kinetics of mTau and p35 modulation by Hsp90 inhibitors, animals were administered intraperitoneally (i.p.) 75 mg/kg PU-DZ8 in PBS (6% DMSO). Mice were sacrificed by CO2 euthanasia at the indicated times following PU-DZ8 administration. Hemibrains were separated into cortico-limbic (cortex, amygdale and hippocampus) and subcortical (basal ganglia, diencephalon, brain stem and cerebellum) regions, quickly frozen on dry ice and stored at −80° C. and processed. In summary, each brain piece was weighed and homogenized in three volumes of Tris-buffered saline (TBS) containing protease and phosphatase inhibitors (25 mM Tris-HCl, pH 7.4, 150 mM NaCl, 1 mM EDTA, 1 mM EGTA, 5 mM sodium pyrophosphate, 30 mM β-glycerophosphate, 30 mM sodium fluoride, 1 mM phenylmethylsulfonyl fluoride (PMSF)). The homogenates were centrifuged at 27,000 g for 15 min at 4° C. Supernatants were collected as S1 fractions, and the pellets (P1) were re-homogenized in three volumes of salt/sucrose buffer (0.8 M NaCl, 10% sucrose, 10 mM Tris/HCl, pH 7.4, 1 mM EGTA, 1 mM PMSF) and centrifuged as above. The resulting pellets were discarded and the supernatants were incubated with sarkosyl (Sigma, St Louis, Mo., USA; 1% final concentration) for 1 h at 37° C. The sarkosyl mixtures were then centrifuged at 150,000 g for 30 min at 4° C. The supernatants (S2 fraction) were collected, and the pellets (P3) were resuspended in 50 μL 2% SDS in TBS and stored at −80° C. for western blotting. Proteins were analyzed by Western blot.

[2] = test system: p35 and tau phosphorylation; test: Five day PU-DZ8 treatment of nine-month old JNPL3 (P301L tau) mice, whole brain; assay type: in vivo
Source text: Transgenic mice: Transgenic mice, JNPL3 line (59) overexpressing mutant human tau (P301L, 4R0N) were used in this study, Mice were heterozygous and on a mixed hybrid genetic background composed of C57BL/DBA2/SW, as published in ref. 59. These mice develop NFTs in the basal telencephalon, diencephalon, brainstem, and spinal cord, with severe pathology accompanied by degeneration in the spinal cord leading to dystonia, paralysis, and death in mice>12 months in age. Nine month-old male JNPL3 mice (n=2) were treated intraperitoneally with PU-DZ8 or vehicle for 5 days. Mice were sacrificed 12 h after last treatment by cervical dislocation under anesthesia.
To further examine the effect of Hsp90 on tau phosphorylation, we used the JNPL3 line of mice expressing mutant (P301L) tau protein (59). Genetic analyses have linked mutations in the tau gene to FTDP-17 (60, 61). Over 20 distinct pathogenic mutations have been identified, with P301L as the most common mutation in tauophaties (33). […] The tau protein in JNPL3 is predominantly human and is phosphorylated at multiple sites: T181 (AT270), S202/T205 (AT8), T212 (AT100), T231 (AT180), S262, S396/S404, S409 and 5422 (59, 62). […] The degree of p35 expression translated well into alleviation of phosphorylation. […] However, in mice where effects were more prominent and p35 expression declined to approximately 20% as compared to control, a significant effect on tau phosphorylation at S202/T205 and T212/S214 and a 50% reduction on T231 was observed. We could not detect a significant amount of tau phosphorylation at T181, site found to be hyperphosphorylated in PHF, tangles and neurofilaments (65). Again, whole brain expression of cdk5 was not affected (FIG. 3).

[3] = cited from earlier work
[4] = Assessment of PU-DZ8 brain levels by HPLC/MS/MS; assay type: in vivo, mouse; details: 75 mg/kg i.p.
Protocol: Assessment of PU-DZ8 brain levels. Concentrations of compound were determined and quantitated by a MRM mode using a tandem high-performance liquid chromatography-mass/mass spectrometry (HPLC/MS/MS). A weighed piece of brain was rinsed with saline isotonic solution, dried with gauze and then homogenized in mobile phase (acetonitrile (ACN)/0.1% formic acid=1.2/2.8, v/v). Haloperidol was added as internal standard. PU-DZ8 was extracted in methylene chloride, the organic layer was separated, speedily dried under vacuum and reconstituted in the mobile phase. Compound analysis was performed in the API 4000™ LC/MS/MS (Applied Biosystems) which was coupled with a Shimadzu LC system and a 96-well plate autosampler. A Gemini C18 column (5μ particle size, 50×4.6 mm I.D.) was used for the LC separation. The analyte was eluted under an isocratic condition for 4 min at a flow rate of 0.4 mL/min
One dose of PU-DZ8 (75 mg/kg) was administered intraperitoneally (i.p.) to female mice of 2.5-4 months in age (n=32) and animals were sacrificed in the interval of 0 to 36 h. Both aggregate-free Tau (S1) and insoluble Tau (P3) fractions were prepared from the subcortical and cortical regions of these mice. PU-DZ8 levels in the brain reached 0.35 μg/g (˜700 nM) at 4 h, and the pharmacologically relevant dose was retained for at least 12 h post-administration (0.2 μg/g, ˜390 nM).

CC(C)NCCCn1c(Cc2cc3c(cc2I)OCO3)nc2c(N)nc(F)nc21 [PU-DZ8]
chaperone levels (hsp70) ([1]; one dose 75 mg/kg IP): hsp70 increase | cdk5 expression ([1]; one dose 75 mg/kg i.p.): No significant changes | expressions of Akt and Raf-1 ([1]; one dose 75 mg/kg i.p.): not altered | insoluble and hyperphosphorylated Tau (P3 fraction) ([1]; one dose 75 mg/kg i.p., 4- to 6-month old mice): significant reduction | soluble mutant tau (HT7), S1 fraction, subcortical brain region ([1]; one dose 75 mg/kg i.p.): significant decrease | soluble mutant tau (HT7), S1 fraction, subcortical brain region ([1]; one dose 75 mg/kg i.p., listed as DZ8): degradation of the mutant protein | whole brain expression of cdk5 ([2]; 5 days i.p.): not affected | compound levels in brain ([2]; 5 days i.p., 12 h after last treatment): Pharmacologically relevant levels | p35 expression as compared to control ([2]; 5 days i.p., mice where effects were more prominent): approximately 20% | reduction in p35 levels ([2]; 5 days i.p., whole brain): 50% | tau phosphorylation at putative cdk5 sites S202/T205 and T212 ([2]; 5 days i.p., whole brain): significant amelioration | phosphorylation on T212/S214 (Ab AT-100) ([2]; at 50% reduction in p35 levels): almost completely | tau phosphorylated at T231 (Ab AT-180) ([2]; at a reduction by 50% in p35 expression): No significant effect | reduction of tau phosphorylation on T231 ([2]; mice where p35 declined to approximately 20% of control): 50% | solubility [3]: water soluble | levels in the brain ([4]; 12 h post-administration): 0.2 μg/g and ~390 nM | levels in the brain ([4]; at 4 h): 0.35 μg/g and ~700 nM
